Where two headings read alike, the source gives them in different places.
Columns and labels:
[1] = system: melanoma cell lines; experiment: Cell based assay, cell viability (CellTiter-Glo), melanoma cell lines; details: Homo sapiens; LOX-IMVI cell line
How it was run: (§1)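 Luminescent ATP assay quantified surviving cells after three days of treatment. Compound was applied at final concentrations of 0 to 2 μM, starting 24 h after cells were seeded.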

[2] = system: breast cancer cell lines (e.g. MDA-MB-231, SK-BR-3, MDA-MB-468, HCC1954); experiment: Cell based assay, cell viability (CellTiter-Glo), breast cancer cell lines
How it was run: as §1

[3] = system: ovarian cancer cell lines; experiment: Cell based assay, cell viability (CellTiter-Glo), ovarian cancer cell lines; details: Homo sapiens; OVCAR-3 cells
How it was run: as §1

[4] = Breast cancer cell line MDA-MB-231-L/DOX, 72 hours, CellTiter-Glo, read-out: IC50, MDA-MB-231-L/DOX
[5] = Homo sapiens, Breast cancer cell line BT-20, 72 hours, CellTiter-Glo, read-out: IC50, BT-20
[6] = Homo sapiens, Breast cancer cell line HCC1395, 72 hours, CellTiter-Glo, read-out: IC50, HCC1395
[7] = Homo sapiens, Breast cancer cell line HCC1954, 72 hours, CellTiter-Glo, read-out: IC50, HCC1954
[8] = Homo sapiens, Breast cancer cell line JIMT-1, 72 hours, CellTiter-Glo, read-out: IC50, JIMT-1
[9] = Homo sapiens, Breast cancer cell line MCF7, 72 hours, CellTiter-Glo, read-out: IC50, MCF7
[10] = Homo sapiens, Breast cancer cell line MDA-MB-231, 72 hours, CellTiter-Glo, read-out: IC50, MDA-MB-231
[11] = Homo sapiens, Breast cancer cell line MDA-MB-468, 72 hours, CellTiter-Glo, read-out: IC50, MDA-MB-468
[12] = Homo sapiens, Breast cancer cell line SK-BR-3, 72 hours, CellTiter-Glo, read-out: IC50, SK-BR-3
[13] = Homo sapiens, BT-20 cells, 72 hours treatment, CellTiter-Glo cell viability, read-out: IC50, Breast cancer cell line BT-20
[14] = Homo sapiens, HCC1395 cells, 72 hours treatment, CellTiter-Glo cell viability, read-out: IC50, Breast cancer cell line HCC1395
[15] = Homo sapiens, HCC1954 cells, 72 hours treatment, CellTiter-Glo cell viability, read-out: IC50, Breast cancer cell line HCC1954
[16] = Homo sapiens, JIMT-1 cells, 72 hours treatment, CellTiter-Glo cell viability, read-out: IC50, Breast cancer cell line JIMT-1
[17] = Homo sapiens, MCF7 cells, 72 hours treatment, CellTiter-Glo cell viability, read-out: IC50, Breast cancer cell line MCF7
[18] = Homo sapiens, MDA-MB-231 cells, 72 hours treatment, CellTiter-Glo cell viability, read-out: IC50, Breast cancer cell line MDA-MB-231
[19] = Homo sapiens, MDA-MB-468 cells, 72 hours treatment, CellTiter-Glo cell viability, read-out: IC50, Breast cancer cell line MDA-MB-468
[20] = Homo sapiens, SK-BR-3 cells, 72 hours treatment, CellTiter-Glo cell viability, read-out: IC50, Breast cancer cell line SK-BR-3
[21] = MDA-MB-231-L/DOX cells, 72 hours treatment, CellTiter-Glo cell viability, read-out: IC50, Breast cancer cell line MDA-MB-231-L/DOX

Row | Structure (SMILES) | IC50 [1] [µM] | IC50 [2, 4] [µM] | IC50 [2, 5] [µM] | IC50 [2, 6] [µM] | IC50 [2, 7] [µM] | IC50 [2, 8] [µM] | IC50 [2, 9] [µM] | IC50 [2, 10] [µM] | IC50 [2, 11] [µM] | IC50 [2, 12] [µM] | IC50 [3] [µM] | IC50 [2, 13] [µM] | IC50 [2, 14] [µM] | IC50 [2, 15] [µM] | IC50 [2, 16] [µM] | IC50 [2, 17] [µM] | IC50 [2, 18] [µM] | IC50 [2, 19] [µM] | IC50 [2, 20] [µM] | IC50 [2, 21] [µM]
1 | CC(=O)c1c([S+](C)[O-])n(Cc2ccc(F)c(Cl)c2)c2c(Br)ccc(Cl)c2c1=O (centres unmarked) [Compound 22, 3-acetyl-8-bromo-5-chloro-1-(3-chloro-4-fluorobenzyl)-2-(methylsulfinyl)quinolin-4(1H)-one] | > 2 | > 2 | > 2 | > 10 | > 2 | > 10 | > 2 | > 2 | > 2 | > 2 | > 2 |  |  |  |  |  |  |  |  | 
2 | CC(=O)c1c(SCc2ccccc2)[nH]c2c(Br)ccc(Cl)c2c1=O [Compound 3, 3-acetyl-2-(benzylthio)-8-bromo-5-chloroquinolin-4(1H)-one] | > 2 | > 2 | > 2 | > 10 | > 2 | > 10 | > 2 | > 2 | > 2 | > 2 | > 2 |  |  |  |  |  |  |  |  | 
3 | CC(=O)c1c([S+]([O-])Cc2ccc(NS(C)(=O)=O)cc2)[nH]c2c(Br)ccc(Cl)c2c1=O (centres unmarked) [Compound 103, N-(4-(((3-acetyl-8-bromo-5-chloro-4-oxo-1,4-dihydroquinolin-2-yl)sulfinyl)methyl)phenyl)methane-sulfonamide] | > 2 |  |  |  |  |  |  |  |  |  | > 2 | > 2 | > 10 | > 2 | > 10 | > 2 | > 2 | > 2 | 1.74 | > 2
4 | Cc1cc(C[S+]([O-])c2[nH]c3c(Cl)ccc(Cl)c3c(=O)c2C(=O)C2CC2)no1 (centres unmarked) [Compound 97, 5,8-dichloro-3-(cyclopropanecarbonyl)-2-(((5-methylisoxazol-3-yl)methyl)sulfinyl)quinolin-4(1H)-one] | 1.03 |  |  |  |  |  |  |  |  |  | 0.59 | > 2 | > 10 | 0.78 | > 10 | > 2 | 1.78 | 0.76 | 0.76 | 1.13
5 | Cc1cc(C[S+]([O-])c2[nH]c3c(Br)ccc(Cl)c3c(=O)c2C(=O)C2CC2)no1 (centres unmarked) [Compound 96, 8-bromo-5-chloro-3-(cyclopropanecarbonyl)-2-(((5-methylisoxazol-3-yl)methyl)sulfinyl)quinolin-4(1H)-one] | > 2 |  |  |  |  |  |  |  |  |  | 0.75 | > 2 | > 10 | 1.04 | > 10 | > 2 | > 2 | 0.98 | 0.98 | > 2
6 | CC(=O)c1c(SCC#N)[nH]c2c(Br)ccc(Cl)c2c1=O [Compound 66, 2-((3-acetyl-8-bromo-5-chloro-4-oxo-1,4-dihydroquinolin-2-yl)thio)acetonitrile] | > 2 | > 2 | > 2 | > 10 | > 2 | > 10 | > 2 | > 2 | > 2 | > 2 | > 2 |  |  |  |  |  |  |  |  | 
7 | COC(=O)c1ccc(C[S+]([O-])c2[nH]c3c(Cl)ccc(Cl)c3c(=O)c2C(C)=O)cc1 (centres unmarked) [Compound 91, methyl 4-(((3-acetyl-5,8-dichloro-4-oxo-1,4-dihydroquinolin-2-yl)sulfinyl)methyl)benzoate] | > 2 |  |  |  |  |  |  |  |  |  | 1.74 | > 2 | > 10 | 1.82 | > 10 | > 2 | > 2 | 1.32 | 1.32 | > 2
8 | CSc1c(C(C)=O)c(=O)c2c(Cl)ccc(Br)c2n1S(=O)(=O)c1ccc(Cl)cc1 [Compound 37, 3-acetyl-8-bromo-5-chloro-1-((4-chlorophenyl)sulfonyl)-2-(methylthio)quinolin-4(1H)-one] | > 2 | > 2 | > 2 | > 10 | > 2 | > 10 | > 2 | > 2 | > 2 | > 2 | > 2 |  |  |  |  |  |  |  |  | 
9 | CC(=O)c1c([S+]([O-])Cc2ccc(C(F)(F)F)nc2C)[nH]c2c(Br)ccc(Cl)c2c1=O (centres unmarked) [Compound 102, 3-acetyl-8-bromo-5-chloro-2-(((2-methyl-6-(trifluoromethyl)pyridin-3-yl)methyl)sulfinyl)quinolin-4(1H)-one] | 0.86 |  |  |  |  |  |  |  |  |  | 0.93 | > 2 | > 10 | 1.02 | > 10 | > 2 | 1.72 | 1.35 | 0.85 | > 2
10 | CC(=O)c1c([S+]([O-])Cc2ccc(C#N)s2)[nH]c2c(Br)ccc(Cl)c2c1=O (centres unmarked) [Compound 98, 5-(((3-acetyl-8-bromo-5-chloro-4-oxo-1,4-dihydroquinolin-2-yl)sulfinyl)methyl)thiophene-2-carbonitrile] | 1.34 |  |  |  |  |  |  |  |  |  | 1.23 | > 2 | > 10 | 1.31 | > 10 | > 2 | 1.86 | 1 | 1 | > 2

— US11464770B2, “Anticancer pharmaceutical composition” (NATIONAL CANCER CENTER, priority 2016, dated 2022)
